Test systems include SK-OV-3 ovarian; KM12 colon; HL-60(TB) leukemia; MDA-MB-435; NCI-H460 lung; NCI/ADR-RES ovarian; NCI-H522 lung; MALME-3M melanoma; SW-620 colon; ACHN renal; MOLT-4 leukemia; 786-0 renal; SF-268 CNS; RXF 393 renal; OVCAR-3 ovarian; OVCAR-5 ovarian; NCI-H226 lung; SN12C renal; HS 578T breast.
Common to all, as to experiment: NCI tumour cell line growth inhibition, 48 h

This is an account of results in PubChem BioAssay (NCI).

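All cell lines were grown in 96-well plates and treated with compound for 48 hours. At the TGI there is no net growth.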

Regarding `O=c1[nH]ncc2[nH]c3c4ccccc4ccc3c12`, the TGI with SK-OV-3 ovarian is greater than 100 µM; in the test with KM12 colon it was greater than 100 µM; in the test on HL-60(TB) leukemia, greater than 100 µM; with MDA-MB-435, 62.4 µM; in the test on NCI-H460 lung, greater than 100 µM; with NCI/ADR-RES ovarian it was greater than 100 µM. Besides, the TGI in the test on NCI-H522 lung is 66.6 µM; in the test on MALME-3M melanoma it was greater than 100 µM; in the test with SW-620 colon, greater than 100 µM; in the test on ACHN renal it was greater than 100 µM; in the test on MOLT-4 leukemia, greater than 100 µM; with 786-0 renal, greater than 100 µM. Besides, the TGI in the test on SF-268 CNS, with RXF 393 renal, with OVCAR-3 ovarian and in the test on OVCAR-5 ovarian was greater than 100 µM throughout.
In the case of `CCCCc1ccc(-n2sc3ncc(-c4ccccc4)cc3c2=O)cc1`, the TGI in the test with SK-OV-3 ovarian, with KM12 colon, in the test on HL-60(TB) leukemia, in the test with NCI-H226 lung, in the test with MDA-MB-435 and with NCI-H460 lung was greater than 100 µM each time. In addition, the TGI with NCI/ADR-RES ovarian, in the test with SN12C renal, in the test on SW-620 colon, in the test on ACHN renal, with MOLT-4 leukemia and in the test on 786-0 renal was greater than 100 µM in each case. Further, the TGI in the test on RXF 393 renal, in the test with OVCAR-3 ovarian and with OVCAR-5 ovarian was greater than 100 µM in each case.
Regarding `O=C(N=Nc1ccc(Cl)cc1Cl)NNc1ccc(Cl)cc1Cl`, the TGI was found to be 49.8 µM with HL-60(TB) leukemia; 48.2 µM in the test on NCI-H226 lung; 51.3 µM with MDA-MB-435; 33.4 µM with NCI-H460 lung; 37.4 µM with SN12C renal; 41.9 µM in the test with NCI-H522 lung. For the same molecule, the TGI was 36.6 µM in the test on MALME-3M melanoma; 45.8 µM in the test with SW-620 colon; 42.5 µM in the test with ACHN renal; 50.5 µM with MOLT-4 leukemia; 32.6 µM in the test on 786-0 renal; 97.5 µM in the test with SF-268 CNS. For the same molecule, the results for the TGI in the test with OVCAR-3 ovarian and in the test on OVCAR-5 ovarian were 33.6 µM and 44 µM, respectively.
For the molecule `O=C1CCCC/C1=C\c1ccc([N+](=O)[O-])cc1`, the TGI with SK-OV-3 ovarian is 30.9 µM; with KM12 colon it was 38.4 µM; with HL-60(TB) leukemia, greater than 100 µM; in the test with NCI-H460 lung, greater than 100 µM; with NCI/ADR-RES ovarian, 57.1 µM; with SN12C renal it was 30.9 µM. Moreover, the TGI in the test on NCI-H522 lung was 30.2 µM; in the test on ACHN renal, 68.1 µM; in the test with MOLT-4 leukemia, 30.4 µM; with 786-0 renal, 28.1 µM; with SF-268 CNS it was greater than 100 µM; in the test with HS 578T breast it was 70.8 µM. Further, the TGI in the test with OVCAR-3 ovarian was 83.5 µM; in the test with OVCAR-5 ovarian it was greater than 100 µM.
Take `COc1ccc2oc(S(=O)(=O)N3CC(CCl)c4ccc(N)cc43)cc2c1` (configuration not stated): the TGI in the test with SK-OV-3 ovarian was greater than 100 µM; in the test with KM12 colon, 6.02 µM; in the test on HL-60(TB) leukemia, 0.454 µM; in the test with NCI-H226 lung, 1.77 µM; in the test on NCI-H460 lung it was 10.6 µM; in the test with NCI/ADR-RES ovarian, greater than 72 µM. In addition, the TGI with SN12C renal was greater than 100 µM; in the test on NCI-H522 lung, greater than 67.6 µM; with MALME-3M melanoma it was greater than 100 µM; with SW-620 colon it was greater than 100 µM; in the test on ACHN renal, greater than 94.6 µM; in the test with MOLT-4 leukemia, greater than 54.5 µM. The TGI was greater than 10.6 µM with 786-0 renal; greater than 100 µM in the test with SF-268 CNS; greater than 100 µM with HS 578T breast; greater than 100 µM in the test on OVCAR-3 ovarian; greater than 100 µM in the test with OVCAR-5 ovarian.
Regarding `CCC(C)C(N)C(=O)N/N=C\c1c2c(nc3ccccc13)-c1cc3c(c(=O)n1C2)COC(=O)[C@]3(O)CC` (some centres not stated), the TGI was greater than 64.5 µM in the test on SK-OV-3 ovarian; greater than 22.5 µM in the test with KM12 colon; 0.68 µM with HL-60(TB) leukemia; 1.66 µM in the test on NCI-H226 lung; greater than 81 µM in the test with MDA-MB-435; 1.5 µM with NCI-H460 lung. Besides, the TGI was greater than 32.5 µM with SN12C renal; 3.23 µM with NCI-H522 lung; 19.7 µM in the test with MALME-3M melanoma; greater than 43.7 µM in the test with SW-620 colon; 0.575 µM in the test on ACHN renal; 1.86 µM in the test with MOLT-4 leukemia. Also, the TGI in the test with 786-0 renal is 1.12 µM; with RXF 393 renal, 0.218 µM; with HS 578T breast it was greater than 100 µM; in the test on OVCAR-3 ovarian, 8.95 µM; in the test on OVCAR-5 ovarian, greater than 43.5 µM.
As for `COc1ccc(-c2c(-c3ccc(OC)cc3)n3c(=O)n(C)c(=O)n23)cc1`, the TGI in the test on SK-OV-3 ovarian is greater than 100 µM; with KM12 colon it was greater than 100 µM; in the test on NCI-H226 lung it was greater than 100 µM; with MDA-MB-435, greater than 100 µM; in the test on NCI/ADR-RES ovarian, 89.9 µM; in the test on SN12C renal, greater than 100 µM. In addition, the TGI in the test on NCI-H522 lung, in the test with MALME-3M melanoma, with SW-620 colon, in the test on ACHN renal, in the test on MOLT-4 leukemia and in the test on 786-0 renal was greater than 100 µM in each case. Besides, the TGI is greater than 100 µM with RXF 393 renal and 51.6 µM with OVCAR-3 ovarian.
